Assay [1] addresses T1, HDAC6, or tubulin deacetylase (TDAC) (Homo sapiens, UniProt Q9UBN7).
T1 construct: endogenous in cells; host or cells: MM.1S cells
T1 sequence (Q9UBN7 1-1215): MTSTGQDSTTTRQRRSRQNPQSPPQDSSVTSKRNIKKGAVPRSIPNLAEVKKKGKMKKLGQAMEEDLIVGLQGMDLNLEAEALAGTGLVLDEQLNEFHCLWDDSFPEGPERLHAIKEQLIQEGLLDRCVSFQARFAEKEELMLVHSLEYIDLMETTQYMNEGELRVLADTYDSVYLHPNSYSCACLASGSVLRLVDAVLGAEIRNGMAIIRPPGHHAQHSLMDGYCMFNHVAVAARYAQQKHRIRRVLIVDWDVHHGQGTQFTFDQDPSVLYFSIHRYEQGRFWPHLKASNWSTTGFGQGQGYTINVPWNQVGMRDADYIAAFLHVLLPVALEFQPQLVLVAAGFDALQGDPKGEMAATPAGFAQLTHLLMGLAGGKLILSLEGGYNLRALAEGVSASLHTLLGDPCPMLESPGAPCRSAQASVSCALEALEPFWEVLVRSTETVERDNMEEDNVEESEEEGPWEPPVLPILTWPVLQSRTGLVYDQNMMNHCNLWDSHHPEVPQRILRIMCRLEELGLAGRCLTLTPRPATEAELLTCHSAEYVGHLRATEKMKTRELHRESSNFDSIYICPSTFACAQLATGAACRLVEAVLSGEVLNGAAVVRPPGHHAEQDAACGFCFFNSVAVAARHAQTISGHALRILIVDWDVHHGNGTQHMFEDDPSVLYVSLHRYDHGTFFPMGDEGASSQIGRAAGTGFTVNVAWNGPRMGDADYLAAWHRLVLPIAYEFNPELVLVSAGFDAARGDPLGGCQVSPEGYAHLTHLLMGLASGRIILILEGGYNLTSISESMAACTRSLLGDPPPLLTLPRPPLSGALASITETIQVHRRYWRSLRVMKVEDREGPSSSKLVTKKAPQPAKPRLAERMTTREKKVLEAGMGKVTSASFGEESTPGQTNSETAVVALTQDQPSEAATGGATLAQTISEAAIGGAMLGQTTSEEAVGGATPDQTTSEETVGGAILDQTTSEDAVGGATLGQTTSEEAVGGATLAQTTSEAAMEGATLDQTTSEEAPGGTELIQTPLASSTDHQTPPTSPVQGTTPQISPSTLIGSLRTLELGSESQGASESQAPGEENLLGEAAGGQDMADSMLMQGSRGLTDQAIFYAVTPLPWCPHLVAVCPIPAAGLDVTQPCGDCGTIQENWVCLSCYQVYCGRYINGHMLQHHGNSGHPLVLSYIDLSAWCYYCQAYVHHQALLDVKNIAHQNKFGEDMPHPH
Description: Inhibition of TDAC (HDAC6, tubulin deacetylase) in MM.1S cells. The assay is classed as cell-based. As to conditions: low nanomolar concentrations. An excerpt:
(§1) Cell lysates were subjected to SDS-PAGE, transferred to polyvinylidene difluoride (PVDF) membrane, and immunoblotted with anti-acetylated histone (Upstate Biotechnology, Lake Placid, N.Y.), anti-p21 antibody (Santa Cruz Biotech, Santa Cruz, Calif.), anti-PARP; anti-caspase-8, anti-caspase-9 and anti-caspase 3 (Cell Signaling, MA); as well as anti-polyubiquitin conjugates, anti-LMP7, anti-β5 (Affiniti, Mamhead, Exeter, Devon, UK). Membranes were stripped and re-probed with anti-tubulin or anti-β-actin (Sigma, St Louis, Mo.) to ensure equivalent protein loading.

The subject of another assay is MM.1S cells. Description: Western blot of apoptosis and cell cycle markers in MM.1S cells. The assay is classed as cell-based, human.
From the text: as §1

Assay [2] relates to MM cell lines resistant to conventional therapies. Description: Growth inhibition (MTS assay and tritiated-thymidine uptake) in MM cell lines. The assay is classed as cell-based. As to conditions: Homo sapiens, 48 h, read-out: median inhibitory concentration, myeloma cell growth. The procedure: (§2) Bortezomib-sensitive (MM.1S) and Bortezomib-resistant (MM.1R) human MM cell lines, as well as RPMI-8226 cells resistant to Doxorubicin (Dox 40), Mitoxantrone (MR20), and Melphalan (LR5), were cultured in RPMI-1640 media (Cellgro, Mediatech, VA) with 10% fetal bovine serum, 2 mmol/L L-glutamine (GIBCO, Grand Island, N.Y.), 100 U/mL penicillin, and […] streptomycin (GIBCO). Drug-resistant cell lines were cultured with either doxorubicin, mitoxantrone, melphalan or bortezomib to confirm their lack of drug sensitivity. MM patient cells were purified (>95% CD138+) by positive selection with anti-CD138 MACS Microbeads (Miltenyi, San Diego, Calif.).
(§3) DNA synthesis was measured by 3H-thymidine (NEN Products, Boston, Mass.) uptake. Cells were pulsed with 3H-thymidine (0.5 μCi/well) during the last 8 hours of 48-hour cultures. All of the experiments were performed in triplicate.
(§4) Cells from 24-, 48- or 72-hour cultures in 200 μL media plus drug were pulsed with 40 μL of 5 mg/mL MTS to each well for the last 4 hours of the cultures. Absorbance was measured at 490 nm using a spectrophotometer (Molecular Devices Corp., Sunnyvale, Calif.).

Assay [3] concerns MM.1S cells co-cultured with bone marrow stromal cells. The experiment in a line: MM.1S proliferation in co-culture with bone marrow stromal cells. In kind it is cell-based, human. How it is done:
Bone marrow specimens were obtained from patients with MM. Mononuclear cells, separated by FicoII-Hipaque density sedimentation, were used to establish long-term BM cultures. When an adherent cell monolayer had developed, cells were harvested in HBSS containing 0.25% trypsin and 0.02% EDTA and were washed and collected by centrifugation. The BMSCs were then plated onto flat-bottom 96-well plates overnight, and then 3×10^4 mM.1S cells were added for 48 hours. 150 μL of supernatant was removed and cells were pulsed with [3H]thymidine (0.5 μCi/well) during the last 8 hours of 48-hour cultures.

A further assay has as its system MM patient cells. Description: Growth inhibition (MTS assay and tritiated-thymidine uptake) in MM patient cells. The assay is classed as cell-based. As to conditions: Homo sapiens, 48 hours, read-out: median inhibitory concentration, myeloma cell growth. The procedure: as §2, §3, §4
A general note: Tetrazolium dyes change colour on reduction, which living cells bring about.

In another assay the test system is MM cells. Description: Combination with proteasome inhibitor bortezomib on MM cells. In kind it is cell-based, human. The procedure: DNA synthesis was measured by 3H-thymidine (NEN Products, Boston, Mass.) uptake. Cells were pulsed with 3H-thymidine (0.5 μCi/well) during the last 8 hours of 48-hour cultures. All of the experiments were performed in triplicate. Statistical significance of differences observed in drug-treated versus control cultures was determined using Student's t test. The minimal level of significance was p<0.05. […] The survival curves for mice were computed using the Kaplan-Meier method. The survival time differences between the control and treated group were compared using a log-rank test. The median survival times were compared using the Fisher-exact test. To compare the rate of tumor growth in the two arms, a linear mixed effect model (random coefficient model) was fitted.

Consider 1 compound from US8883842B2, “Use of HDAC inhibitors for the treatment of myeloma” (Novartis AG, priority 2005, dated 2014).

Molecules are shown by their SMILES.

`Cc1[nH]c2ccccc2c1CCNCc1ccc(/C=C/C(=O)NO)cc1` [Compound (III), N-hydroxy-3-[4-[[[2-(2-methyl-1H-indol-3-yl)-ethyl]-amino]methyl]phenyl]-2E-2-propenamide]: the “inhibition of TDAC” value in assay [1] is “dose-dependent inhibition”. Moreover, in the assay with MM.1S cells, the c-myc expression entry is recorded as “down-regulation” and the p21 expression result is “up-regulation”. For the same compound, in the assay with MM.1S cells (20 nM), the “cleavage of caspase 8, caspase 9, caspase 3 and PARP” value is recorded as “Significant cleavage”. The IC50 in assay [2] is below 0.01 µM. Also, the “MM.1S myeloma cell proliferation” value in assay [3] was “inhibited”. Moreover, the IC50 with MM patient cells is below 0.01 µM. For the same compound, the “activity in combination with bortezomib” value in the assay on MM cells is “Synergistic activity”.
